Results reported in ChEMBL document CHEMBL3301361, “Experimental in vitro DMPK and physicochemical data on a set of publicly disclosed compounds”.
Converted amounts (≈) assume the structure as drawn.

assay: physchem; settings: pH 7.4 buffer

Compound	solubility thermodynamic [µM]
C[C@@H]1CN(c2nc(N3CCOCC3)c3ccc(-c4ccccc4)nc3n2)C[C@H](C)O1	1.8 (≈ 0.73 µg/mL)
Cn1cnc(-c2cccc(NC(=O)Nc3cc(C(F)(F)F)ccc3F)c2)c1-c1cc2c(N)ncnc2s1	0.5 (≈ 0.264 µg/mL)
CC(=O)n1c2ccccc2c2cc(NC(=O)CCc3ccncc3)ccc21	2.1 (≈ 0.751 µg/mL)
O=C(c1ccc(F)cc1)C1CCN(C(=O)c2ccc(Cl)c(Cl)c2)CC1	0.8 (≈ 0.304 µg/mL)
CC(=O)N1CCC(n2cc(-c3cnc(N)c(-c4nc5ccccc5o4)c3)cn2)CC1	1.7 (≈ 0.684 µg/mL)
Cc1cc2n[nH]c(=O)n2c2cc(-c3ccc([S+](C)[O-])cc3)ccc12 (configuration not stated)	1.9 (≈ 0.641 µg/mL)
CN(c1ccnc(Nc2cc(N3CCOCC3)nc(N3CCOCC3)c2)n1)c1cccc2[nH]ncc12	0.8 (≈ 0.39 µg/mL)
COc1ccc2c(c1)Sc1ccccc1N2	2.4 (≈ 0.55 µg/mL)
Cc1nc(O)c2cc(-c3ccccc3)sc2n1	1.8 (≈ 0.436 µg/mL)
O=C(Cc1ccccc1)Nc1ccc(N2CCCC2)cc1	1.1 (≈ 0.308 µg/mL)
Cc1ccnc(NC(c2ccccn2)c2c(C)[nH]c3ccccc23)c1 (configuration not stated)	1.4 (≈ 0.46 µg/mL)
Cc1ccccc1Oc1cc(-n2ncc(Cl)c(Cl)c2=O)ncn1	1 (≈ 0.349 µg/mL)
Clc1ccc2c(c1)Nc1ccccc1S2	0.7 (≈ 0.164 µg/mL)
Cc1ccc(Nc2nc(C)nc3c2oc2ccccc23)cc1	0.5 (≈ 0.145 µg/mL)
COc1ccc([C@H](CC(=O)O)N2CCN(CCCc3ccc4c(n3)NCCC4)C2=O)cn1	2.5 (≈ 1.1 µg/mL)
O=S(=O)(c1ccc(F)cc1)N1CCCN(c2nccc(C(F)(F)F)n2)CC1	0.9 (≈ 0.364 µg/mL)
CCOc1ccc(NCC(=O)c2ccc(C)cc2)cc1	1.2 (≈ 0.323 µg/mL)
c1ccc(-c2nc(-c3ccccc3)c(-c3ccccc3)o2)cc1	1.9 (≈ 0.565 µg/mL)
O=S(=O)(c1ccc(N2CCC(c3ccc(Cl)cc3)=N2)cc1)N(CCO)CCO	2.2 (≈ 0.933 µg/mL)
Cc1onc(-c2ccccc2)c1C(=O)OCC(=O)c1ccccc1	2 (≈ 0.643 µg/mL)
COc1ccc(N(C)C(=O)c2ccc3nc(-c4ccccc4)c(-c4ccccc4)nc3c2)cc1	0.7 (≈ 0.312 µg/mL)
O=C(Cc1ccc2ccccc2c1)Nc1cc(-c2ccc(Cl)cc2)n[nH]1	0.5 (≈ 0.181 µg/mL)
CC(=O)Nc1nc(-c2ccc(Br)s2)cs1	2.2 (≈ 0.667 µg/mL)
O=S(=O)(CC(c1ccccc1)N1CCCCC1)c1ccc(Cl)cc1 (configuration not stated)	0.9 (≈ 0.328 µg/mL)

Compound	solubility thermodynamic [µM]
CC(C)Cc1nc(-c2ccccc2)c(-c2ccc(CN3CCC(n4c(=O)[nH]c5ccccc54)CC3)cc2)nc1O	1.6 (≈ 0.854 µg/mL)
Cc1ccc(Oc2ccc(C(=O)N(C)Cc3ccncc3)cc2)cc1	1.9 (≈ 0.632 µg/mL)
COc1cc(N2CCCN(C(C)=O)CC2)ccc1Nc1ncc(Cl)c(-c2cnc3ccccn23)n1	2.4 (≈ 1.18 µg/mL)
COc1cc(OC2CN(C(C)=O)C2)ccc1Nc1ncc(Cl)c(-c2cnc3ccccn23)n1	1.7 (≈ 0.79 µg/mL)
COc1cc(N2CCN(C(=O)[C@H](C)O)CC2)ccc1Nc1ncc(Cl)c(-c2cnc3ccccn23)n1	1.5 (≈ 0.762 µg/mL)
COc1cc(N2CCN(C(C)=O)CC2)ccc1Nc1ncc(Cl)c(-c2cnc3ccc(F)cn23)n1	1.3 (≈ 0.645 µg/mL)
COc1cc2ncnc(Nc3cc(NC(=O)c4ccccc4)c(Cl)cc3F)c2cc1OC	1.9 (≈ 0.86 µg/mL)
Cc1ccc(C(=O)C2CCN(S(=O)(=O)c3c(C)noc3C)CC2)cc1	2.1 (≈ 0.761 µg/mL)
O=C(CNC(=O)c1ccc(Cl)cc1)c1ccc(Br)cc1	0.5 (≈ 0.176 µg/mL)
Clc1cccc(CNc2[nH]nc3cccc(Oc4ccccc4)c23)c1	1.3 (≈ 0.455 µg/mL)
Cc1ccc(C(=O)C(=O)c2ccc(C)cc2)cc1	2.1 (≈ 0.5 µg/mL)
COc1cc2ncnc(Nc3cnn(CC(=O)Nc4cccc(F)c4)c3)c2cc1OC	2 (≈ 0.845 µg/mL)
COc1cc2ncnc(Oc3ccc(CC(=O)Nc4ccc(N(C)C)cn4)cc3)c2cc1OC	1.6 (≈ 0.735 µg/mL)
COc1cccc(NC(=O)Cc2ccc(Oc3ncnc4cc(OC)c(OC)cc34)cc2)c1	2 (≈ 0.891 µg/mL)
CN(C(=O)Cc1ccc(S(C)(=O)=O)cc1)[C@@H]1CCN(Cc2nc3cc(F)ccc3s2)C[C@@H]1F	1.8 (≈ 0.888 µg/mL)
COCCOc1cc2ncnc(Nc3ncc(CC(=O)Nc4cccc(F)c4)s3)c2cc1OC	0.6 (≈ 0.29 µg/mL)
CCN(CCO)CCCOc1cc2ncnc(Nc3ncc(CC(=O)Nc4cccc(F)c4)s3)c2cc1OC	0.6 (≈ 0.333 µg/mL)
COc1cc(Oc2ncnc3cc(OC)c(OC)cc23)ccc1CC(=O)Nc1cn(C)nc1C	1.8 (≈ 0.834 µg/mL)
COc1ccc2c(Oc3ccc(CC(=O)Nc4cc(C)cc(CN(C)C)c4)c(OC)c3)ccnc2c1	1.8 (≈ 0.874 µg/mL)
COc1cc2c(Nc3ccc(NC(=O)c4ccccc4)cc3)ncnc2cc1OCCCN1CCOCC1	2.5 (≈ 1.28 µg/mL)
CS(=O)(=O)Cc1cc(N2CC3CCC(C2)O3)nc(-c2ccc3[nH]ccc3c2)n1	1.5 (≈ 0.598 µg/mL)
COc1cc(OC2CCN(C)CC2)c2c(Nc3ccc(F)c(Cl)c3)ncnc2c1	2.1 (≈ 0.875 µg/mL)
O=C(Nc1ccc(N2CC[S+]([O-])CC2)nc1)c1nnc(Nc2ccccc2F)o1	2.5 (≈ 1.04 µg/mL)
